Reference: PubChem BioAssay (NCI)
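Step 1: Grow cells in 96-well plates. Step 2: Expose to compound for 48 hours at 5 concentrations. Step 3: Interpolate endpoints linearly; if unreached, use highest concentration. GI50 is the concentration that inhibits growth by half. The concentration for full growth arrest is given as TGI.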

Tests used:
Assay in all cases: DTP human tumour cell line panel, 48 h
[1] = tested on: OVCAR-5 ovarian
[2] = tested on: SN12C renal
[3] = tested on: 786-0 renal
[4] = tested on: HL-60(TB) leukemia
[5] = tested on: HCT-15 colon
[6] = tested on: NCI/ADR-RES ovarian
[7] = tested on: SF-295 CNS
[8] = tested on: HCT-116 colon
[9] = tested on: RPMI-8226 leukemia
[10] = tested on: HOP-62 NSCLC
[11] = tested on: SW-620 colon
[12] = tested on: KM12 colon
[13] = tested on: NCI-H226 lung
[14] = tested on: SK-MEL-28 melanoma
[15] = tested on: UACC-62 melanoma
[16] = tested on: MDA-MB-435
[17] = tested on: ACHN renal
[18] = tested on: PC-3 prostate
[19] = tested on: SNB-19 CNS
[20] = tested on: OVCAR-3 ovarian
[21] = tested on: SK-MEL-2 melanoma
[22] = tested on: M14 melanoma
[23] = tested on: LOX IMVI melanoma
[24] = tested on: OVCAR-4 ovarian
[25] = tested on: MDA-MB-231 breast
[26] = tested on: OVCAR-8 ovarian
[27] = tested on: NCI-H522 lung
[28] = tested on: UACC-257 melanoma
[29] = tested on: SF-539 CNS
[30] = tested on: SK-OV-3 ovarian
[31] = tested on: NCI-H460 lung
[32] = tested on: SF-268 CNS
[33] = tested on: HT29 colon
[34] = tested on: T-47D breast
[35] = tested on: U251 CNS
[36] = tested on: A498 renal
[37] = tested on: HOP-92 NSCLC
[38] = tested on: MCF7 breast
[39] = tested on: MOLT-4 leukemia
[40] = tested on: A549 NSCLC
[41] = tested on: EKVX NSCLC
[42] = tested on: SR leukemia
[43] = tested on: IGROV1 ovarian
[44] = tested on: SNB-75 CNS
[45] = tested on: HS 578T breast
[46] = tested on: DU-145 prostate
[47] = tested on: K-562 leukemia
[48] = tested on: TK-10 renal
[49] = tested on: UO-31 renal
[50] = tested on: MDA-N
[51] = tested on: CAKI-1 renal
[52] = tested on: SK-MEL-5 melanoma
[53] = tested on: NCI-H23 lung
[54] = tested on: CCRF-CEM leukemia
[55] = tested on: HCC-2998 colon
[56] = tested on: MALME-3M melanoma
[57] = tested on: COLO 205 colon
[58] = tested on: RXF 393 renal
[59] = tested on: BT-549 breast

With `CC12OC3(C(O)C1O)C(C(=O)O[C@H]3CO[Si](C)(C)C(C)(C)C)C2S(=O)(=O)c1ccccc1` (stereo partly drawn) the TGI [1] was > 100 µM, the TGI [2] was > 100 µM and the TGI [3] was > 100 µM. For the same compound, the TGI [4] was 67.9 µM, the TGI [5] was 89.6 µM and the TGI [6] was 30.4 µM. The TGI [7] was > 100 µM, the TGI [8] was > 100 µM and the TGI [9] was 70.8 µM. For the same compound, the TGI [10] was > 100 µM, the TGI [11] was > 100 µM and the TGI [12] was > 100 µM. The TGI [13] was 58.3 µM, the TGI [14] was > 100 µM and the TGI [15] was 36 µM. The TGI [16] was > 100 µM, the TGI [17] was > 100 µM and the TGI [18] was 96.3 µM. The TGI [19] was > 100 µM, the TGI [20] was > 100 µM and the TGI [21] was > 100 µM. For the same compound, the TGI [22] was > 100 µM, the TGI [23] was 46.8 µM and the TGI [24] was 95 µM. For the same compound, the TGI [25] was > 100 µM, the TGI [26] was > 100 µM and the TGI [27] was 47.2 µM. For the same compound, the TGI [28] was 69 µM, the TGI [29] was > 100 µM and the TGI [30] was > 100 µM. The TGI [31] was > 100 µM, the TGI [32] was > 100 µM and the TGI [33] was > 100 µM. For the same compound, the TGI [34] was 79.3 µM, the TGI [35] was > 100 µM and the TGI [36] was > 100 µM. For the same compound, the TGI [37] was > 100 µM, the TGI [38] was > 100 µM and the TGI [39] was 55.7 µM. For the same compound, the TGI [40] was > 100 µM, the TGI [41] was > 100 µM and the TGI [42] was 87.5 µM. The TGI [43] was 97.4 µM, the TGI [44] was 90.4 µM and the TGI [45] was > 100 µM. For the same compound, the TGI [46] was > 100 µM, the TGI [47] was > 100 µM and the TGI [48] was > 100 µM. For the same compound, the TGI [49] was > 100 µM and the TGI [50] was > 100 µM.

In the case of `CN(C)C=NCc1ccc2c(c1)OCO2`, the TGI [1] is reported as > 100 µM, the TGI [2] is reported as > 100 µM and the TGI [3] is reported as > 100 µM. The TGI [5] was > 100 µM, the TGI [6] was > 100 µM and the TGI [51] was > 100 µM. For the same compound, the TGI [7] was > 100 µM, the TGI [8] was > 100 µM and the TGI [9] was > 100 µM. For the same compound, the TGI [10] was > 100 µM, the TGI [11] was > 100 µM and the TGI [12] was > 100 µM. For the same compound, the TGI [13] was > 100 µM, the TGI [14] was > 100 µM and the TGI [52] was > 100 µM. For the same compound, the TGI [15] was > 100 µM, the TGI [16] was > 100 µM and the TGI [53] was > 100 µM. For the same compound, the TGI [17] was > 100 µM, the TGI [18] was > 100 µM and the TGI [19] was > 100 µM. The TGI [20] was > 100 µM, the TGI [21] was > 100 µM and the TGI [54] was > 100 µM. The TGI [22] was > 100 µM, the TGI [23] was > 100 µM and the TGI [24] was > 100 µM. The TGI [25] was > 100 µM, the TGI [26] was > 100 µM and the TGI [27] was > 100 µM. The TGI [28] was > 100 µM, the TGI [29] was > 100 µM and the TGI [30] was > 100 µM. The TGI [31] was > 100 µM, the TGI [32] was > 100 µM and the TGI [55] was > 100 µM. The TGI [33] was > 100 µM, the TGI [34] was > 100 µM and the TGI [56] was > 100 µM. For the same compound, the TGI [35] was > 100 µM, the TGI [36] was > 100 µM and the TGI [37] was > 100 µM. The TGI [38] was > 100 µM, the TGI [39] was > 100 µM and the TGI [57] was > 100 µM. The TGI [40] was > 100 µM, the TGI [41] was > 100 µM and the TGI [58] was > 100 µM. The TGI [42] was > 100 µM, the TGI [43] was > 100 µM and the TGI [44] was > 100 µM. The TGI [45] was > 100 µM, the TGI [46] was > 100 µM and the TGI [47] was > 100 µM. The TGI [48] was > 100 µM, the TGI [49] was > 100 µM and the TGI [50] was > 100 µM.

`COc1ccccc1N(C(C)=O)C1=C(Cl)C(=O)c2ccccc2C1=O` was tested, and the GI50 [1] was 2.93 µM, the TGI [1] was 11.5 µM and the GI50 [2] was 2.83 µM. For the same compound, the TGI [2] was 12.1 µM, the GI50 [3] was 3.15 µM and the TGI [3] was 12 µM. The GI50 [4] was 2.24 µM, the TGI [4] was 5.53 µM and the GI50 [5] was 1.04 µM. For the same compound, the TGI [5] was 2.61 µM, the GI50 [6] was 2.52 µM and the TGI [6] was 11.5 µM. It also gave a GI50 [51] of 1.45 µM, a TGI [51] of 3.3 µM and a GI50 [7] of 2.38 µM. The TGI [7] was 6.5 µM, the GI50 [8] was 0.76 µM and the TGI [8] was 2.18 µM. For the same compound, the GI50 [9] was 0.833 µM, the TGI [9] was 3.96 µM and the GI50 [59] was 1.89 µM. It also gave a TGI [59] of 8.25 µM, a GI50 [10] of 3.03 µM and a TGI [10] of 12.6 µM. The GI50 [11] was 1.06 µM, the TGI [11] was 2.55 µM and the GI50 [12] was 1.06 µM. The TGI [12] was 5.48 µM, the GI50 [13] was 1.51 µM and the TGI [13] was 6.01 µM. The GI50 [14] was 2.4 µM, the TGI [14] was 7.03 µM and the GI50 [52] was 1.19 µM. It also gave a TGI [52] of 2.63 µM, a GI50 [15] of 0.502 µM and a TGI [15] of 2.92 µM. For the same compound, the GI50 [16] was 1.9 µM, the TGI [16] was 4.55 µM and the GI50 [53] was 1.65 µM. For the same compound, the TGI [53] was 6 µM, the GI50 [17] was 1.43 µM and the TGI [17] was 2.73 µM. For the same compound, the GI50 [18] was 1.17 µM, the TGI [18] was 10.8 µM and the GI50 [19] was 3.16 µM. For the same compound, the TGI [19] was > 40.8 µM, the GI50 [20] was 1.15 µM and the TGI [20] was 2.72 µM. It also gave a GI50 [21] of 1.89 µM, a TGI [21] of 4.57 µM and a GI50 [54] of 1.95 µM. The TGI [54] was 5.11 µM, the GI50 [22] was 1.88 µM and the TGI [22] was 5.91 µM. The GI50 [23] was 2.29 µM, the TGI [23] was 8.08 µM and the GI50 [24] was 0.875 µM. For the same compound, the TGI [24] was 2.14 µM, the GI50 [25] was 2.03 µM and the TGI [25] was 6.23 µM. The GI50 [26] was 2.72 µM, the TGI [26] was > 32.2 µM and the GI50 [27] was 0.33 µM. It also gave a TGI [27] of 1.42 µM, a GI50 [28] of 2.14 µM and a TGI [28] of 4.39 µM. For the same compound, the GI50 [29] was 1.45 µM, the TGI [29] was 4.77 µM and the GI50 [30] was 2.46 µM. The TGI [30] was 7.33 µM, the GI50 [31] was 3.17 µM and the TGI [31] was 12.2 µM. For the same compound, the GI50 [32] was 3.19 µM, the TGI [32] was 12.5 µM and the GI50 [55] was 2.23 µM. The TGI [55] was 8.61 µM, the GI50 [33] was 1.89 µM and the TGI [33] was 4.45 µM. For the same compound, the GI50 [34] was 0.382 µM, the TGI [34] was 2.95 µM and the GI50 [56] was 1.66 µM. It also gave a TGI [56] of 3.2 µM, a GI50 [35] of 2.62 µM and a TGI [35] of 11.8 µM. For the same compound, the GI50 [36] was 1.54 µM, the TGI [36] was 7.69 µM and the GI50 [37] was 0.304 µM. For the same compound, the TGI [37] was 1.85 µM, the GI50 [38] was 2.4 µM and the TGI [38] was 10.5 µM. The GI50 [39] was 2.94 µM, the TGI [39] was > 25.1 µM and the GI50 [57] was 1.51 µM. For the same compound, the TGI [57] was 2.84 µM, the GI50 [40] was 3.43 µM and the TGI [40] was 13.5 µM. For the same compound, the GI50 [41] was 0.751 µM, the TGI [41] was 6.95 µM and the GI50 [58] was 1.12 µM. The TGI [58] was 2.45 µM, the GI50 [42] was 1.78 µM and the TGI [42] was 5.16 µM. For the same compound, the GI50 [43] was 2.82 µM, the TGI [43] was 10.3 µM and the GI50 [44] was 1.72 µM. For the same compound, the TGI [44] was 7.6 µM, the GI50 [45] was 2.7 µM and the TGI [45] was > 71.9 µM. The GI50 [46] was 3.46 µM, the TGI [46] was 12 µM and the GI50 [47] was 2.23 µM. The TGI [47] was 7.67 µM, the GI50 [48] was 1.87 µM and the TGI [48] was 3.3 µM. It also gave a GI50 [49] of 1.03 µM and a TGI [49] of 2.56 µM.
